From US10316017B2, “COT modulators and methods of use thereof” (Gilead Sciences, Inc., priority 2015, dated 2019)
Like-named read-outs stand apart in the source and are kept apart here.

How the values were obtained:
[1] = target: T1, human Cot catalytic domain (30-397 amino acids) (Homo sapiens, UniProt P41279); assay: High Throughput Cot Biochemical Assay (KinEASE TR-FRET); details: Cot KinEASE TR-FRET, 400 μM ATP; read-out: IC50 HTRF
T1 construct: Purified recombinant human Cot catalytic domain (30-397 amino acids) was purchased from Cama Biosciences; purchased Cama Biosciences (so in the source)
How it was run: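 Recombinant human Cot catalytic domain (aa 30-397), 5 nM, with 1 μM STK3 peptide and 400 μM ATP in MOPS pH 7.0 buffer with MgOAc, DTT, BSA, NP-40, glycerol, 0.1% DMSO. Phosphorylated XL665-peptide detected by Eu-[…] antibody TR-FRET.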

[2] = test system: TNFα production in LPS-stimulated human monocytes; assay: Cot Monocyte TNFα Cell Based Assay; details: Homo sapiens, Monocyte, read-out: EC50 TNF
How it was run: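 Human monocytes (5,000 cells/well) pretreated with compound for 1 hour at 37° C (0.5% DMSO), then stimulated with 50 pg/ml LPS for 4 hours. Total TNFα measured by TR-FRET after overnight antibody incubation at room temp, expressed as percent of control between unstimulated and stimulated cells.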

[3] = LPS-stimulated human monocytes, TNFα TR-FRET

T1 sequence (P41279 30-397): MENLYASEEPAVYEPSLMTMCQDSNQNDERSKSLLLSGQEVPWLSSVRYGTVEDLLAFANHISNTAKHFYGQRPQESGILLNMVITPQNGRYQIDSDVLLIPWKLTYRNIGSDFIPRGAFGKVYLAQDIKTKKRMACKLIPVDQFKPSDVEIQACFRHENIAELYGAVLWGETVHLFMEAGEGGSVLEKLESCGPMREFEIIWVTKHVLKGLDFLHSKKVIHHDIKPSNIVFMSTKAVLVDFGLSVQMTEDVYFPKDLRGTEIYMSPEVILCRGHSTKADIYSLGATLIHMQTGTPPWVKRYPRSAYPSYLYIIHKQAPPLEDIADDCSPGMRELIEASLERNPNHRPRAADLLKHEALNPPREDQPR

Row | SMILES | IC50 [1] [nM] | EC50 [2, 3] [nM] | EC50 [2] [nM]
1 | CC(C)(C)CNc1c(C#N)cnc2c(Cl)cc(N[C@@H](c3ccc(F)cc3)c3cn(C4(C(N)=O)CC4)nn3)cc12 [Example 996, (S)-1-(4-(((8-chloro-3-cyano-4-(neopentylamino)quinolin-6-yl)amino)(4-fluorophenyl)methyl)-1H-1,2,3-triazol-1-yl)cyclopropane-1-carboxamide] | 6 | 109 | 
2 | CC(C)(C)CNc1c(C#N)cnc2c(Cl)cc(N[C@@H](c3ccc(F)cc3)c3cn(C4(c5cccnc5)CC4)nn3)cc12 [Example 997, (S)-8-chloro-6-(((4-fluorophenyl)(1-(1-(pyridin-3-yl)cyclopropyl)-1H-1,2,3-triazol-4-yl)methyl)amino)-4-(neopentylamino) quinoline-3-carbonitrile] | 48 | 61 | 
3 | CC(C)(C)CNc1c(C#N)cnc2c(Cl)cc(N[C@@H](c3ccc(F)cc3)c3cn(C4(C(F)(F)F)CCC4)nn3)cc12 [Example 998, (S)-8-chloro-6-(((4-fluorophenyl)(1-(1-(trifluoromethyl)cyclobutyl)-1H-1,2,3-triazol-4-yl)methyl)amino)-4-(neopentylamino)quinoline-3-carbonitrile] | 53 | 250 | 
4 | CC(C)(C)CNc1c(C#N)cnc2c(F)cc(N[C@H](c3cn(C4(C(N)=O)CC4)nn3)c3ccccc3Cl)cc12 [Example 999, (S)-1-(4-((2-chlorophenyl)((3-cyano-8-fluoro-4-(neopentylamino)quinolin-6-yl)amino)methyl)-1H-1,2,3-triazol-1-yl)cyclopropane-1-carboxamide] | 63 | 306 | 
5 | CC(C)(C)CNc1c(C#N)cnc2c(F)cc(N[C@H](c3cn(C(F)(F)C(N)=O)nn3)c3ccccc3Cl)cc12 [Example 1001, (S)-2-(4-((2-chlorophenyl)((3-cyano-8-fluoro-4-(neopentylamino)quinolin-6-yl)amino)methyl)-1H-1,2,3-triazol-1-yl)-2,2-difluoroacetamide] | 22 | 344 | 
6 | CC(C)(C)CNc1c(C#N)cnc2c(Cl)cc(N[C@@H](c3ccc(F)cc3)c3cn(CC(F)F)nn3)cc12 [Example 1002, (S)-8-chloro-6-(((1-(2,2-difluoroethyl)-1H-1,2,3-triazol-4-yl) (4-fluorophenyl)methyl)amino)-4-(neopentylamino) quinoline-3-carbonitrile] | 14 | 202 | 
7 | CC(C)(C)CNc1c(C#N)cnc2c(Cl)cc(N[C@H](c3cn(C4CC4)nn3)c3cccc4ccccc34)cc12 [Example 1003, (S)-8-chloro-6-(((1-cyclopropyl-1H-1,2,3-triazol-4-yl)(naphthalen-1-yl)methyl)amino)-4-(neopentylamino)quinoline-3-carbonitrile] | 19 | 227 | 
8 | [2H][C@](Nc1cc(Cl)c2ncc(C#N)c(NCC(C)(C)C)c2c1)(c1ccc(Cl)cc1)c1cn(C23CCN(CC2)CC3)nn1 [Example 1010, (S)-8-chloro-6-(((4-chlorophenyl)(1-(quinuclidin-4-yl)-1H-1,2,3-triazol-4-yl)methyl-d)amino)-4-(neopentylamino)quinoline-3-carbonitrile] | 69 |  | 928

Now from value to molecule, other results behind:

Row | IC50 [1] [nM] | EC50 [2, 3] [nM] | SMILES | EC50 [2] [nM]
9 | 3 | 49 | Cc1c(C#N)cccc1[C@H](Nc1cc(C#N)c2ncc(C#N)c(NCC(C)(C)C)c2c1)c1cn(C2(C(F)(F)F)CC2)nn1 [Example 995, (S)-6-(((3-cyano-2-methylphenyl)(1-(1-(trifluoromethyl)cyclopropyl)-1H-1,2,3-triazol-4-yl)methyl)amino)-4-(neopentylamino)quinoline-3,8-dicarbonitrile] | 
10 | 58 | 177 | CC(C)(C)CNc1c(C#N)cnc2c(F)cc(N[C@H](c3cn(C4(C#N)CC4)nn3)c3ccccc3Cl)cc12 [Example 1000, (S)-6-(((2-chlorophenyl)(1-(1-cyanocyclopropyl)-1H-1,2,3-triazol-4-yl)methyl)amino)-8-fluoro-4-(neopentylamino)quinoline-3-carbonitrile] | 
11 | 33 | ≥ 1000 | [2H][C@@](Nc1cc(C#N)c2ncc(C#N)c(NCC(C)(C)C)c2c1)(c1cn(-c2cccnc2)nn1)c1ccccc1Cl [Example 1004, (S)-6-(((2-chlorophenyl)(1-(pyridin-3-yl)-1H-1,2,3-triazol-4-yl)methyl-d)amino)-4-(neopentylamino)quinoline-3,8-dicarbonitrile] | 
12 | ≥ 10000 | ≥ 1000 | [2H][C@](Nc1cc(C#N)c2ncc(C#N)c(NCC(C)(C)C)c2c1)(c1cccc(C#N)c1)c1cn(-c2cccnc2)nn1 [Example 1005, (S)-6-(((3-cyanophenyl)(1-(pyridin-3-yl)-1H-1,2,3-triazol-4-yl)methyl-d)amino)-4-(neopentylamino) quinoline-3,8-dicarbonitrile] | 
13 | 9 | 72 | [2H][C@](Nc1cc(C#N)c2ncc(C#N)c(NCC(C)(C)C)c2c1)(c1ccc(F)cc1)c1cn(C2(CF)CC2)nn1 [Example 1006, (S)-6-(((1-(1-(fluoromethyl)cyclopropyl)-1H-1,2,3-triazol-4-yl)(4-fluorophenyl)methyl-d)amino)-4-(neopentylamino)quinoline-3,8-dicarbonitrile] | 
14 | 2 | 66 | [2H][C@](Nc1cc(C#N)c2ncc(C#N)c(NCC(C)(C)C)c2c1)(c1cccc(C#N)c1)c1cn(C2(CF)CC2)nn1 [Example 1007, (S)-6-(((3-cyanophenyl)(1-(1-(fluoromethyl)cyclopropyl)-1H-1,2,3-triazol-4-yl)methyl-d)amino)-4-(neopentylamino)quinoline-3,8-dicarbonitrile] | 
15 | 1 | 123 | Cc1c(C#N)cccc1[C@H](Nc1cc(Cl)c2ncc(C#N)c(NCC(C)(C)C)c2c1)c1cn(C2(C(N)=O)CC2)nn1 [Example 1008, (S)-1-(4-(((8-chloro-3-cyano-4-(neopentylamino)quinolin-6-yl)amino)(3-cyano-2-methylphenyl)methyl)-1H-1,2,3-triazol-1-yl)cyclopropane-1-carboxamide] | 
16 | 1 | 67 | Cc1c(C#N)cccc1[C@H](Nc1cc(Cl)c2ncc(C#N)c(NCC(C)(C)C)c2c1)c1cn(C2(C(N)=O)CCC2)nn1 [Example 1009, (S)-1-(4-(((8-chloro-3-cyano-4-(neopentylamino)quinolin-6-yl)amino)(3-cyano-2-methylphenyl)methyl)-1H-1,2,3-triazol-1-yl)cyclobutane-1-carboxamide] | 
17 | 3 | 22 | CC(C)(C)CNc1c(C#N)cnc2c(C#N)cc(N[C@H](c3cn(C4(c5ccncc5)CC4)nn3)c3ccccc3Cl)cc12 [Example 1011, (S)-6-(((2-chlorophenyl)(1-(1-(pyridin-4-yl)cyclopropyl)-1H-1,2,3-triazol-4-yl)methyl)amino)-4-(neopentylamino) quinoline-3,8-dicarbonitrile] | 
18 | 3 | 36 | Cc1c(C#N)cccc1[C@H](Nc1cc(Cl)c2ncc(C#N)c(NCC(C)(C)C)c2c1)c1cn(C2(C(F)F)CC2)nn1 [Example 1012, (S)-8-chloro-6-(((3-cyano-2-methylphenyl)(1-(1-(difluoromethyl)cyclopropyl)-1H-1,2,3-triazol-4-yl)methyl)amino)-4-(neopentylamino)quinoline-3-carbonitrile] | 
